Experiments:
human recombinant HDAC1 = target: T1, human recombinant HDAC1 (Homo sapiens, UniProt Q13547); assay: In vitro HDAC enzyme activity inhibition assay, HDAC1 (HDAC Fluorimetric Drug Discovery Kit); assay type: biochemical; details: human recombinant HDAC1, Fluor de Lys-SIRT1 substrate 10 μM, 30° C. for 60 minutes
T1 construct: purchased Enzo Life Sciences, Inc. BML-SE456
How it was run: (§1)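 Both HDAC1 and HDAC6 (human recombinant, 0.3 μg) tested identically: 10 μM fluorogenic Fluor de Lys-SIRT1 substrate, reaction 60 min at 30° C, developer added for 30 min. IC50 calculated from Ex 360/Em 460 signal over 5-fold serial dilutions.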

human recombinant HDAC6 = target: T2, human recombinant HDAC6 (Homo sapiens, UniProt Q9UBN7); assay: In vitro HDAC enzyme activity inhibition assay, HDAC6 (HDAC Fluorimetric Drug Discovery Kit); assay type: biochemical; details: for HDAC6 Selectivity (fold): HDAC6 versus HDAC1; for IC50: human recombinant HDAC6, same protocol as the HDAC1 test
T2 construct: purchased Calbiochem Inc. 382180
T2 sequence (Q9UBN7 1-1215): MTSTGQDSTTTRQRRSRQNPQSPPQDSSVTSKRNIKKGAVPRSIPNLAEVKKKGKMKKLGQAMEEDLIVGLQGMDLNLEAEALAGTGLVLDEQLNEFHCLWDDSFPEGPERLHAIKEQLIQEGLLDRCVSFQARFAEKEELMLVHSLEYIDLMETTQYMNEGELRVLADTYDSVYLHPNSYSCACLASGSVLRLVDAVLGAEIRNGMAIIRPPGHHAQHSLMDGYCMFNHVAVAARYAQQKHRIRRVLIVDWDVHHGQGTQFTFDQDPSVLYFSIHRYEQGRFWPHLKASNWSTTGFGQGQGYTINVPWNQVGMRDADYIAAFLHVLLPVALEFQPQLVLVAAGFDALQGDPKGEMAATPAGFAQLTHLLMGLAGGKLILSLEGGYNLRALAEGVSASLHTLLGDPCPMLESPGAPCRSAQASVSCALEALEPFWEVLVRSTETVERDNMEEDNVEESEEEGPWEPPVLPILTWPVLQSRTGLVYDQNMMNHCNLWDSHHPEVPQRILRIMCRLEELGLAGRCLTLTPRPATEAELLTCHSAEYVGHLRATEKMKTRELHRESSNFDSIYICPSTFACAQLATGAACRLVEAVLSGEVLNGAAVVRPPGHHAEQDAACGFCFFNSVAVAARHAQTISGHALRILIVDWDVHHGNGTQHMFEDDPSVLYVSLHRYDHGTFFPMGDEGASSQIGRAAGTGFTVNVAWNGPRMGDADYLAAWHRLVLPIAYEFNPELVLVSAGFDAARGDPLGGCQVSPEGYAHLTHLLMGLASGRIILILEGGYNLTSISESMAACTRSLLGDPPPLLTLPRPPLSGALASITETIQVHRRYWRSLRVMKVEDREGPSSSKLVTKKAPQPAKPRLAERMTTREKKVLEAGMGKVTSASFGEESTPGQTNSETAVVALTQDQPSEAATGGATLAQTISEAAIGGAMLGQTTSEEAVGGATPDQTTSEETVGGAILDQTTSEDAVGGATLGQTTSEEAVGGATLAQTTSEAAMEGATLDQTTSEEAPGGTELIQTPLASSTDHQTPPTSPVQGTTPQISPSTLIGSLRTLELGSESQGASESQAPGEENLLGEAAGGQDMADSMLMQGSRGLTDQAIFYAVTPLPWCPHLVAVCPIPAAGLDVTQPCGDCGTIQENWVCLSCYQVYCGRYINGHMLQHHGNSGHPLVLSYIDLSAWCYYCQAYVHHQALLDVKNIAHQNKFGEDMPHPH
How it was run: as §1

T1 sequence (Q13547 whole entry): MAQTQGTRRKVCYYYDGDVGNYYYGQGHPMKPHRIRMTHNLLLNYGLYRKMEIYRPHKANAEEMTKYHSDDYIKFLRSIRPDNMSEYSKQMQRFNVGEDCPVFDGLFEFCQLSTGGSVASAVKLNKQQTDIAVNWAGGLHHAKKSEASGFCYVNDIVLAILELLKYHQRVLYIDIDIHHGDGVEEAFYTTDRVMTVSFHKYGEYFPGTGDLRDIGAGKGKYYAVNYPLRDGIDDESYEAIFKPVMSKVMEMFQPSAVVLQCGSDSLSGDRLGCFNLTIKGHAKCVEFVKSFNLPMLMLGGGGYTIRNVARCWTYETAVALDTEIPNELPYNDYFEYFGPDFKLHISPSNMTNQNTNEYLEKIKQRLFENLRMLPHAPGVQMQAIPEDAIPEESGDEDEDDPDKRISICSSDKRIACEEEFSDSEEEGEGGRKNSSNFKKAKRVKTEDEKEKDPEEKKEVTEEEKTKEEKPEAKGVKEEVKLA

SMILES	IC50 (human recombinant HDAC1)	HDAC6 Selectivity (fold) (human recombinant HDAC6)	IC50 (human recombinant HDAC6)
O=C(C1CCN(C2CC3(CCC3)C2)CC1)N(Cc1cn2ccc(-c3nnc(C(F)F)o3)cc2n1)c1cccc(F)c1 [Compound 4618, N-((7-(5-(difluoromethyl)-1,3,4-oxadiazol-2-yl)imidazo[1,2-a]pyridin-2-yl)methyl)-N-(3-fluorophenyl)-1-(spiro[3.3]heptan-2-yl)piperidine-4-carboxamide]	> 50000 nM	308 fold	162 nM
O=C(C1CCN(C2CC3(COC3)C2)CC1)N(Cc1cn2ccc(-c3nnc(C(F)F)o3)cc2n1)c1cccc(F)c1 [Compound 4619, N-((7-(5-(difluoromethyl)-1,3,4-oxadiazol-2-yl)imidazo[1,2-a]pyridin-2-yl)methyl)-N-(3-fluorophenyl)-1-(2-oxaspiro[3.3]heptan-6-yl)piperidine-4-carboxamide]	> 50000 nM	253 fold	197 nM
O=C(N1CCN(C2CC3(CCC3)C2)CC1)N(Cc1cn2ccc(-c3nnc(C(F)F)o3)cc2n1)c1cccc(F)c1 [Compound 4620]	> 50000 nM	190 fold	263 nM
O=C(N1CCN(C2CC3(COC3)C2)CC1)N(Cc1cn2ccc(-c3nnc(C(F)F)o3)cc2n1)c1cccc(F)c1 [Compound 4621]	> 50000 nM	326 fold	153 nM
CN1CC2(C1)CN(C(=O)N(Cc1cn3ccc(-c4nnc(C(F)F)o4)cc3n1)c1ccccc1)C2 [Compound 4625, N-((7-(5-(difluoromethyl)-1,3,4-oxadiazol-2-yl)imidazo[1,2-a]pyridin-2-yl)methyl)-6-methyl-N-phenyl-2,6-diazaspiro[3.3]heptan-2-carboxamide]	> 50000 nM	510 fold	98 nM
CC(C)(C)OC(=O)N1CCN(C(=O)N(Cc2cn3ccc(-c4nnc(C(F)(F)F)o4)cc3n2)c2cccc(F)c2)CC1 [Compound 6892, tert-butyl 4-((3-fluorophenyl) ((7-(5-(trifluoromethyl)-1,3,4-oxadiazol-2-yl)imidazo[1,2-a]pyridine-2-yl)methyl)carbamoyl)piperazine-1-carboxylate]	> 50000 nM	21.2 fold	2360 nM

Reference: patent US12522601B2, “1,3,4-oxadiazole derivative compounds as histone deacetylase 6 inhibitor, and the pharmaceutical composition comprising the same” (CHONG KUN DANG PHARMACEUTICAL CORP., priority 2020, dated 2026)
